Experimental findings from the supplement of paper PMC10702517 are described below.

± gives the standard deviation.

Series [1] in a line: chemical recovery from spiked human plasma; higher = better extraction. Conditions: pooled human plasma.
Series [2] can be described thus: chemical recovery into PDMS from spiked human plasma; higher = better extraction. Conditions: pooled human plasma, extraction method: PES with PDMS.
Series [3] in a line: chemical recovery by SPE of plasma after PDMS sampling; higher = better extraction. Conditions: pooled human plasma, extraction method: HLB SPE of plasma after PES.
The mark [4] stands for this setting: extraction method: SPE only (HLB 96-well).
The mark [5] stands for this setting: extraction method: SPE only (HLB 96-well), PES comparison experiment.
[6] abbreviates: extraction method: solvent precipitation (ACN + hexane).
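Wherever chemical recovery by SPE of plasma after PDMS sampling is given: over 400 spiked chemicals quantified by LC-HRMS or GC-HRMS via internal standard calibration, recovery relative to spike mix added to unspiked plasma extract to correct matrix effects.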

Consider `CC(COc1ccc(Oc2ccccc2)cc1)Oc1ccccn1` (stereo not given) [Pyriproxyfen], for which the chemical recovery in series [1] (setting [4]) was determined as 39.7 ± 12%; in series [1] (setting [5]), 23 ± 4.6%. The “chemical recovery into PDMS” value in series [2] (equilibration time (d): 1) came to 48.2 ± 4.8%; in series [2] (equilibration time (d): 3), 50.9 ± 6.1%; in series [2] (equilibration time (d): 6) it was 49.3 ± 2.8%.

With `C=CC[C@@H]1/C=C(\C)C[C@H](C)C[C@H](OC)[C@H]2O[C@@](O)(C(=O)C(=O)N3CCCC[C@H]3C(=O)O[C@H](/C(C)=C/[C@@H]3CC[C@@H](O)[C@H](OC)C3)[C@H](C)[C@@H](O)CC1=O)[C@H](C)C[C@@H]2OC` [Tacrolimus], the results for the “chemical recovery by SPE of plasma” value in series [3] (equilibration time (d): 1) and in series [3] (equilibration time (d): 3) were 5.46 ± 2.7% and 1.87 ± 3.2%, respectively. The figures for the “chemical recovery into PDMS” value in series [2] (equilibration time (d): 1), in series [2] (equilibration time (d): 3) and in series [2] (equilibration time (d): 6) were 23.3 ± 2.5%, 27.6 ± 2.7% and 30.5 ± 2.2%, respectively.

As for `CC1(C)[C@H](C=C(Cl)Cl)[C@H]1C(=O)OCc1c(F)c(F)cc(F)c1F` [Transfluthrin], the chemical recovery in series [1] (setting [4]) turned out to be 0.85 ± 0.086%; in series [1] (setting [5]) it was 13.8 ± 3.7%; in series [1] (setting [6]) it was 31.9 ± 2.4%. The “chemical recovery into PDMS” value in series [2] (equilibration time (d): 1) was 79.7 ± 14%; in series [2] (equilibration time (d): 3) it was 113 ± 37%; in series [2] (equilibration time (d): 6), 92.7 ± 12%.

On to `CC(C)COP(=O)(OCC(C)C)OCC(C)C` [Tri-isobutylphosphate], for which the chemical recovery in series [1] (setting [5]) is 31.3 ± 5.5%. For the same compound, the “chemical recovery into PDMS” value in series [2] (equilibration time (d): 1) was 37.6 ± 1.3%; in series [2] (equilibration time (d): 3), 39.9 ± 4.4%; in series [2] (equilibration time (d): 6), 39.9 ± 2.7%.

On to `CC(C)(C)C(O)C(Oc1ccc(Cl)cc1)n1cncn1` (stereo not given) [Triadimenol], for which the chemical recovery in series [1] (setting [5]) was 47.4 ± 7.7%; in series [1] (setting [6]), 68.9 ± 3.2%. The “chemical recovery into PDMS” value in series [2] (equilibration time (d): 1) is 39.4 ± 1.5%; in series [2] (equilibration time (d): 3), 43.5 ± 3.8%; in series [2] (equilibration time (d): 6), 43.6 ± 0.11%.

Consider `CC(C)N(C(=O)SCC(Cl)=C(Cl)Cl)C(C)C` [Triallate], for which the chemical recovery in series [1] (setting [4]) worked out at 16.3 ± 5%; in series [1] (setting [5]), 22.8 ± 6.1%; in series [1] (setting [6]), 76.8 ± 11%. Also, the “chemical recovery into PDMS” value in series [2] (equilibration time (d): 1) was 29 ± 1.7%; in series [2] (equilibration time (d): 3), 32.2 ± 4%; in series [2] (equilibration time (d): 6), 29.8 ± 1.9%.

Turning to `COc1cc(Cl)ccc1Oc1ccc(Cl)cc1Cl` [Triclosan-methyl], the chemical recovery in series [1] (setting [4]) was determined as 0.483 ± 0.13%; in series [1] (setting [5]) it was 12.2 ± 2.8%; in series [1] (setting [6]), 22.2 ± 1.1%. Moreover, in series [2] (equilibration time (d): 6), the “chemical recovery into PDMS” value came out at 84.6 ± 26%.

For the compound `Cc1ccc(OP(=O)(Oc2ccc(C)cc2)Oc2ccc(C)cc2)cc1` [Tricresylphosphate], the chemical recovery in series [1] (setting [4]) worked out at 44.8 ± 12%; in series [1] (setting [5]) it was 25.4 ± 4.9%. The “chemical recovery into PDMS” value was 54.2 ± 6.3% in series [2] (equilibration time (d): 1), 56.1 ± 5.2% in series [2] (equilibration time (d): 3) and 54 ± 3.2% in series [2] (equilibration time (d): 6).

On to `CO/N=C(/C(=O)OC)c1ccccc1CO/N=C(\C)c1cccc(C(F)(F)F)c1` [Trifloxystrobin], for which the figures for the chemical recovery in series [1] (setting [4]) and in series [1] (setting [5]) were 48 ± 6.8% and 45.4 ± 8.7%, respectively. Also, the results for the “chemical recovery into PDMS” value in series [2] (equilibration time (d): 1), in series [2] (equilibration time (d): 3) and in series [2] (equilibration time (d): 6) were 47.2 ± 4.1%, 47.8 ± 5.8% and 47.3 ± 3.1%, respectively.

`O=P(Oc1ccccc1)(Oc1ccccc1)Oc1ccccc1` [Triphenylphosphate]: the chemical recovery in series [1] (setting [4]) came to 57.9 ± 4.8%; in series [1] (setting [5]), 41.3 ± 5.6%; in series [1] (setting [6]) it was 88.1 ± 6.6%. Besides, the results for the “chemical recovery into PDMS” value in series [2] (equilibration time (d): 1), in series [2] (equilibration time (d): 3) and in series [2] (equilibration time (d): 6) were 41.3 ± 4.4%, 43.5 ± 3.7% and 42 ± 2.9%, respectively.

With `Cl[C@H]1[C@H](Cl)[C@@H](Cl)[C@H](Cl)[C@H](Cl)[C@H]1Cl` [alpha-HCH], the chemical recovery in series [1] (setting [5]) is 25.5 ± 5.6%. Also, the “chemical recovery into PDMS” value in series [2] (equilibration time (d): 1) turned out to be 56.7 ± 14%; in series [2] (equilibration time (d): 3) it was 69.9 ± 18%; in series [2] (equilibration time (d): 6), 66.1 ± 14%.

In the case of `O=S1OC[C@@H]2[C@H](CO1)[C@]1(Cl)C(Cl)=C(Cl)[C@]2(Cl)C1(Cl)Cl` (stereo partly drawn) [beta-Endosulfan], the chemical recovery in series [1] (setting [4]) was found to be 3.92 ± 1.1%; in series [1] (setting [5]), 15.9 ± 3.6%; in series [1] (setting [6]) it was 17.7 ± 8.9%. For the same compound, the “chemical recovery into PDMS” value in series [2] (equilibration time (d): 1) was 60.6 ± 7.8%; in series [2] (equilibration time (d): 3), 77.8 ± 18%; in series [2] (equilibration time (d): 6) it was 80.6 ± 18%.

With `Cl[C@H]1[C@H](Cl)[C@@H](Cl)[C@H](Cl)[C@@H](Cl)[C@@H]1Cl` [beta-HCH], the figures for the chemical recovery in series [1] (extraction method: PES+SPE (3 d PDMS equilibration then HLB SPE)), in series [1] (setting [5]) and in series [1] (setting [6]) were 192 ± 11%, 26.6 ± 2.1% and 33.3 ± 5.6%, respectively. Besides, the “chemical recovery into PDMS” value in series [2] (equilibration time (d): 3) stood at 80.5 ± 10%; in series [2] (equilibration time (d): 6) it was 77.1 ± 5.9%.

As for `Cl[C@H]1[C@H](Cl)[C@@H](Cl)[C@@H](Cl)[C@H](Cl)[C@H]1Cl` [gamma-HCH], the chemical recovery in series [1] (setting [5]) was 9.76 ± 0.99%; in series [1] (setting [6]), 26.2 ± 8.1%. Besides, the “chemical recovery into PDMS” value in series [2] (equilibration time (d): 3) came out at 57.4 ± 18%; in series [2] (equilibration time (d): 6), 58.6 ± 18%.
